These results are taken from ChEMBL document CHEMBL1129805, “Novel conformationally constrained analogues of diacylglycerol. Protein kinase C binding affinity of simplified compounds based on a 6-membered lactam moiety” (Bioorg Med Chem Lett, 1997).

The test system of experiment [1] is HL-60. Kind of experiment: Effective dose required to […] the differentiation to monocytes of HL-60 cells. It counts as functional. The conditions noted are these: Homo sapiens, read-out: ED50 (the source's name).
In experiment [2] the target is Protein kinase C delta type (Homo sapiens, UniProt Q05655). Kind of experiment: Displacement of [3H]PDBu from Protein kinase C delta. On the technique in general: In a radioligand displacement assay an active substance lowers the binding of a labelled ligand.
Chain of Protein kinase C delta type (Q05655 whole entry): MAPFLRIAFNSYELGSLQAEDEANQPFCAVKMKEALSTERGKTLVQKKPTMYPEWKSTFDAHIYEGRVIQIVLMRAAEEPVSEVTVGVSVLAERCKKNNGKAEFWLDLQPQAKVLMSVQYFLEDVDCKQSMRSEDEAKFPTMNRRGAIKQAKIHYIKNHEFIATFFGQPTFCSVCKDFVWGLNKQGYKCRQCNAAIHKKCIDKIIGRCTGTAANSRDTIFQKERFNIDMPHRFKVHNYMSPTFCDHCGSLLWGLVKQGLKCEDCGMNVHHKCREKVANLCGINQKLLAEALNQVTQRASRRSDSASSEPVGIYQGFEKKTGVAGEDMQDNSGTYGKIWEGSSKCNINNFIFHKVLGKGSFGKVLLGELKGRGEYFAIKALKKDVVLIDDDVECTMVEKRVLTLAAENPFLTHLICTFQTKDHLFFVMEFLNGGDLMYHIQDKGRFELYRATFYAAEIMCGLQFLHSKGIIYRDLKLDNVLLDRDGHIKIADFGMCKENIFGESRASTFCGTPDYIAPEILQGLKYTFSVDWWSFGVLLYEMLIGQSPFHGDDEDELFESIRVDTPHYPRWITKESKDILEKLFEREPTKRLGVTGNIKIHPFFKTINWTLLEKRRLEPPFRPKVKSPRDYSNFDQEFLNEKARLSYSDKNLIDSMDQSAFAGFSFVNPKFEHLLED
Experiment [3] concerns HL-60. Kind of experiment: Effective dose required to […] the differentiation to monocytes of HL-60 cells; Weaker activity. It counts as functional. The following applies: Homo sapiens, read-out: ED50 (the source's name).
In experiment [4] the test system is HL-60. Description: Effective dose required to […] the differentiation to monocytes of HL-60 cells; Inactive. It counts as functional. The conditions noted are these: Homo sapiens, read-out: ED50 (the source's name).

Each structure is given as a SMILES string. pEC50, pKi: −log10 of the molar value.

The pKi is −log10 of the Ki, conventionally taken in molar units.

Consider `CCCCCCCCCCCCCCN1C[C@@H](CO)NC(=O)[C@@H]1C(C)C`, for which the pEC50 with HL-60 [1] is 6.70. Further, in experiment [2], the pKi was 6.54.

With `CCCCCCCCCCCCCCN1C[C@H](CO)NC(=O)[C@@H]1C(C)C`, the pEC50 in the experiment on HL-60 [3] is 6.00. The negative logarithm of the Ki (pKi) in experiment [2] is 5.57.

`CCCCCCCCCCCCCCN1C[C@@H](CO)NC(=O)[C@H]1C(C)C` had a negative logarithm of the Ki (pKi) in experiment [2] of 5.19.

As to `CCCCCCCCCCCCCCN1C[C@H](CO)NC(=O)[C@H]1C(C)C`, the pEC50 in the experiment with HL-60 [4] is below 5.30. The pKi in experiment [2] was 4.92.
